For four compounds, Activity and IC50 results are on record in ChEMBL document CHEMBL1153010, “Effect of conjugates of all-trans-retinoic acid and shorter polyene chain analogues with amino acids on prostate cancer cell growth” (Eur J Med Chem, 2009).

Molecules are shown by their SMILES. pIC50: −log10 of the molar value. Active and inactive are the calls of the source. No cut-off for these calls is given here.

In general, pIC50 refers to −log10 of the IC50, conventionally taken in molar units. The low end stands for a large IC50, the high end for a small IC50.

For test [1], the system named is LNCaP. Briefly: Antiproliferative activity against human LNCAP cells after 48 hrs by MTT assay. The test is classed as functional, cell-based. For orientation: Tetrazolium dyes change colour on reduction, which living cells bring about.
Test [2] deals with LNCaP. Briefly: Antiproliferative activity against human LNCAP cells after 48 hrs by MTT assay in the presence of 1 uM RARalpha selective antagonist Ro415253. The class given is functional, cell-based.
The subject of test [3] is LNCaP. Briefly: Effect on morphology in human LNCAP cells assessed as elongation of cells by phase-contrast microscopy. The test is classed as functional, cell-based.
Test [4] concerns LNCaP. Briefly: Cell cycle arrest in human LNCAP cells assessed as accumulation at G0/G1 phase after 48 hrs by flow cytometry. The class given is functional.
Test [5] deals with LNCaP. Briefly: Cell cycle arrest in human LNCAP cells assessed as accumulation at S phase after 48 hrs by flow cytometry. The class given is functional. (A flow cytometer gives signals particle by particle.)
Test [6] deals with LNCaP. Briefly: Cell cycle arrest in human LNCAP cells assessed as accumulation at G2/M phase after 48 hrs by flow cytometry. The class given is functional.
In test [7] the test system is LNCaP. Briefly: Antiproliferative activity against human LNCAP cells assessed as maximal effect at 10 uM after 48 hrs by MTT assay. The class given is functional, cell-based.

Consider `CC1=C(/C=C/C(C)=C/C=C/C(C)=C/C(=O)NCCC(=O)O)C(C)(C)CCC1`, for which the Activity result was “Dose-dependent effect” in the test with LNCaP [1], 64% in the test with LNCaP [4], 14.8% with LNCaP [5] and 2.2% in the test on LNCaP [6]. The pIC50 in the test on LNCaP [1] is 6.57. In addition, the outcome with LNCaP [2], in the test with LNCaP [3] and in the test on LNCaP [7] was Active.
As for `CC1=C(/C=C/C(C)=C/C=C/C(C)=C/C(=O)N[C@@H](CC(C)C)C(=O)O)C(C)(C)CCC1`, the Activity result in the test on LNCaP [1] is “Dose-dependent effect”; in the test on LNCaP [4], 65.9%; in the test with LNCaP [5] it was 19.6%; with LNCaP [6], 1.9%. Moreover, the negative logarithm of the IC50 (pIC50) in the test on LNCaP [1] is 6.57. Besides, the result with LNCaP [2] and in the test with LNCaP [7] was Active.
For `CC1=C(/C=C/C(C)=C/C=C/C(C)=C/C(=O)NCCCCCC(=O)O)C(C)(C)CCC1`, the result in the test with LNCaP [1] was inactive. Besides, in the test on LNCaP [3], the outcome was Active.
For the compound `CC1=C(/C=C/C(C)=C/C=C/C(C)=C/C(=O)O)C(C)(C)CCC1` [TRETINOIN], the Activity result was “Dose-dependent effect” in the test on LNCaP [1], 66.7% in the test on LNCaP [4], 17.6% in the test on LNCaP [5] and 4.4% in the test with LNCaP [6]. For the same compound, the pIC50 in the test with LNCaP [1] is 6.30. Further, in the test on LNCaP [2], the result was inactive. Also, the result in the test on LNCaP [7] was Active.
